The values below come from patent US7563794B2, “Ziprasidone free from colored impurities and a process for its preparation” (Dipharma Francis S.r.l., priority 2005, dated 2009).

The conditions of series [1]: cited from earlier work.
For series [2] the following is noted: reported by EP 965 343; cited from earlier work.
The conditions of series [3]: particles having diameter lower than or equal to 85 μm, aqueous solutions at physiological pH, EP 965 343; cited from earlier work.
Series [4] in a line: water solubility. Conditions: particles having mean diameter D[4,3] higher than 85 μm. Format: physicochemical.
The nature of series [5]: hygroscopicity / absorption of atmospheric humidity (water content by Karl-Fischer). Type of series: physicochemical. The settings on record: particles having mean diameter D[4,3] higher than 85 μm (150 μm vs known 50 μm sample, 25° C., 50% relative humidity, FIG. 2). As to the method: The samples water content was determined by the known Karl—Fischer technique. “Approximatively” and “about” herein mean around ±10% of the indicated value.

The conditions of series [6]: cited from earlier work. This is another data set of the same source.

Where two headings read alike, the source gives them in different places.

Consider `Cl.O=C1Cc2cc(CCN3CCN(c4nsc5ccccc45)CC3)c(Cl)cc2N1` [ziprasidone hydrochloride, 5-(2-(4-(1,2-benzisothiazol-3-yl)-1-piperazinyl)-ethyl)-6-chloro-1,3-dihydro-2H-indol-2-one hydrochloride], for which the “permeability through biological membranes” value in series [1] was “high permeability”. The water solubility result in series [2] is “sparingly water-soluble”. Moreover, the “amount of the compound that dissolves within 45 minutes” value in series [3] is given as “at least 70%”.

For the compound `Cl.O=C1Cc2cc(CCN3CCN(c4nsc5ccccc45)CC3)c(Cl)cc2N1` [anhydrous ziprasidone hydrochloride], the water solubility entry in series [4] is on record as “substantially unchanged”. Also, the figures for the “resistance to absorption of atmospheric humidity” value in series [5] (listed as Anhydrous ziprasidone hydrochloride) and in series [5] (hydrochloride) were “higher resistance to the absorption of atmospheric humidity” and “improved resistance to atmospheric humidity”, respectively. Moreover, the hygroscopicity entry in series [6] (exposed to air, spontaneously converts to the hydrate form) is listed as “highly hygroscopic”; in series [6] (particles with diameter lower than or equal to 85 μm) it was “high hygroscopicity”.
